From patent US12404241B2 (Celgene Corporation, priority 2018, dated 2025)
Where a name gives a salt, the structure may show the parent alone.

Molecular target: T1, AR (Homo sapiens, UniProt P10275)
T1 construct: endogenous in cells; host or cells: VCaP cells
T1 sequence (P10275 1-920): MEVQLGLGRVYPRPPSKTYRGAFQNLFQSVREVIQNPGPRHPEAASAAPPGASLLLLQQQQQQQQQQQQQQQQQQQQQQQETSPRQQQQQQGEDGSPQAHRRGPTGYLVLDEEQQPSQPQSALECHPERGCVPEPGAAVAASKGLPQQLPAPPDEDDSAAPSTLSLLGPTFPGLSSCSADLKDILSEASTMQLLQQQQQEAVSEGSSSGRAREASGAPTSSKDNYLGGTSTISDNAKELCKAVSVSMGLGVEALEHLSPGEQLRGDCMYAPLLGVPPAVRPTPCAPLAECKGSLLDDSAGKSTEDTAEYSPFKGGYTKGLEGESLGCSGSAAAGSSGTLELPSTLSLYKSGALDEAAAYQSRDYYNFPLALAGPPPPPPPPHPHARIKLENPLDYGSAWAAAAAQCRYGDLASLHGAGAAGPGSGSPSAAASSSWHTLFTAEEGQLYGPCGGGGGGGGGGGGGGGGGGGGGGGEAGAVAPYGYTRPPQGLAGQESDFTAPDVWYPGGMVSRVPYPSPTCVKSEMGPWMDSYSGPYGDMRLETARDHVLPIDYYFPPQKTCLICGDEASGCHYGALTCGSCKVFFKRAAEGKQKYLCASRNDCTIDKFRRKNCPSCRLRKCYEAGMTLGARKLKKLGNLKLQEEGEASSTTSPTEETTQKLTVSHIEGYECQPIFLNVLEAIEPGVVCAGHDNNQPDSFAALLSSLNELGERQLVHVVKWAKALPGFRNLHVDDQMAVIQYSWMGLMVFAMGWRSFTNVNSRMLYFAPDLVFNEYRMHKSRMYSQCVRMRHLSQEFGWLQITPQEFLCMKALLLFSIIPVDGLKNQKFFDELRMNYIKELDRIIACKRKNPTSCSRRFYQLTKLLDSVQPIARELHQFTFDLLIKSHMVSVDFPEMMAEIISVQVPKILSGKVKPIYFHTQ
Experiment: VCAP AR Degradation Assay
Assay type: cell-based
Conditions: for Y (AR degradation efficiency, % of DMSO control): class symbols *; for DC50: class symbols A-C, read-out: DC50
Procedure, shortened: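 VCaP cells treated 24 h at 37 °C with a 10-point 1:3 series (top 5 μM final; 0.1% DMSO control). Lysate AR measured by sandwich ELISA, normalized to DMSO as percent of control; DC50, EC50 and lowest AR level (Y) from four-parameter logistic fit.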

Structure (SMILES) | Y (AR degradation efficiency, % of DMSO control) | DC50 [nM]
CC1(C)C(=O)N(c2cnc(C#N)c(C(F)(F)F)c2)C(=S)N1c1ccc(OCCN2CCN(CC(=O)Nc3cc(NC4CCC(=O)NC4=O)ccc3F)CC2)c(CC(F)F)c1 (centres unmarked) [Example 66, 2-(4-(2-(4-(3-(6-cyano-5-(trifluoromethyl)pyridin-3-yl)-5,5-dimethyl-4-oxo-2-thioxoimidazolidin-1-yl)-2-(2,2-difluoroethyl)phenoxy)ethyl)piperazin-1-yl)-N-(5-(2,6-dioxopiperidin-3-ylamino)-2-fluorophenyl)acetamide] | * (0<Y<=25%) | < 100
CC(C)c1cc(N2C(=S)N(c3ccc(C#N)c(Cl)c3)C(=O)C2(C)C)ccc1OCCN1C[C@@H](C)N(CC(=O)Nc2cc(F)cc(NC3CCC(=O)NC3=O)c2)[C@@H](C)C1 (stereo partly drawn) [Example 251, 2-((2S,6R)-4-(2-(4-(3-(3-chloro-4-cyanophenyl)-5,5-dimethyl-4-oxo-2-thioxoimidazolidin-1-yl)-2-isopropylphenoxy)ethyl)-2,6-dimethylpiperazin-1-yl)-N-(3-(2,6-dioxopiperidin-3-ylamino)-5-fluorophenyl)acetamide] | * (0<Y<=25%) | < 100
CC1(C)C(=O)N(c2ccc(C#N)c(C(F)(F)F)c2)C(=S)N1c1ccc(OCCN2CCN(CC(=O)Nc3cc(NC4CCC(=O)NC4=O)ccc3F)CC2)c(CCF)c1 (centres unmarked) [Example 141, 2-(4-(2-(4-(3-(4-cyano-3-(trifluoromethyl)phenyl)-5,5-dimethyl-4-oxo-2-thioxoimidazolidin-1-yl)-2-(2-fluoroethyl)phenoxy)ethyl)piperazin-1-yl)-N-(5-(2,6-dioxopiperidin-3-ylamino)-2-fluorophenyl)acetamide] | * (0<Y<=25%) | < 100
CCC(C)c1cc(N2C(=S)N(c3ccc(C#N)c(C(F)(F)F)c3)C(=O)C2(C)C)ccc1OCCN1CCN(CC(=O)Nc2cccc(NC3CCC(=O)NC3=O)c2)CC1 (centres unmarked) [Example 29, hydrochloride] | ** (25%<Y<=35%) | 500 to 1000
CC(C)c1cc(N2C(=S)N(c3ccc(C#N)c(C(F)(F)F)c3)C(=O)C2(C)C)ccc1OCCN1C[C@@H](C)N(CC(=O)Nc2cccc(NC3CCC(=O)NC3=O)c2)C[C@H]1C (stereo partly drawn) [Example 193, 2-((2R,5R)-4-(2-(4-(3-(4-cyano-3-(trifluoromethyl)phenyl)-5,5-dimethyl-4-oxo-2-thioxoimidazolidin-1-yl)-2-isopropylphenoxy)ethyl)-2,5-dimethylpiperazin-1-yl)-N-(3-(2,6-dioxopiperidin-3-ylamino)phenyl)acetamide] | ** (25%<Y<=35%) | 100 to 500
CC(C)c1cc(N2C(=S)N(c3ccc(C#N)c(C(F)(F)F)c3)C(=O)C2(C)C)cnc1OCCN1C[C@@H](C)N(CC(=O)Nc2cc(C#N)cc(NC3CCC(=O)NC3=O)c2)C[C@H]1C (stereo partly drawn) [Example 232, 2-((2R,5R)-4-(2-(5-(3-(4-cyano-3-(trifluoromethyl)phenyl)-5,5-dimethyl-4-oxo-2-thioxoimidazolidin-1-yl)-3-isopropylpyridin-2-yloxy)ethyl)-2,5-dimethylpiperazin-1-yl)-N-(3-cyano-5-(2,6-dioxopiperidin-3-ylamino)phenyl)acetamide] | * (0<Y<=25%) | 100 to 500
C[C@@H]1CN(CCOc2ccc(N3C(=S)N(c4ccc(C#N)c(Cl)c4)C(=O)C3(C)C)cc2C(C)(F)F)C[C@H](C)N1CC(=O)Nc1cccc(NC2CCC(=O)NC2=O)c1 (stereo partly drawn) [Example 269, 2-((2S,6R)-4-(2-(4-(3-(3-chloro-4-cyanophenyl)-5,5-dimethyl-4-oxo-2-thioxoimidazolidin-1-yl)-2-(1,1-difluoroethyl)phenoxy)ethyl)-2,6-dimethylpiperazin-1-yl)-N-(3-(2,6-dioxopiperidin-3-ylamino)phenyl)acetamide] | * (0<Y<=25%) | < 100
CCc1cc(N2C(=S)N(c3ccc(C#N)c(C(F)(F)F)c3)C(=O)C2(C)C)ccc1OCCN1CCN(CC(=O)Nc2cccc(N[C@@H]3CCC(=O)NC3=O)c2)[C@H](C)C1 [Example 112, 2-((R)-4-(2-(4-(3-(4-cyano-3-(trifluoromethyl)phenyl)-5,5-dimethyl-4-oxo-2-thioxoimidazolidin-1-yl)-2-ethylphenoxy)ethyl)-2-methylpiperazin-1-yl)-N-(3-((R)-2,6-dioxopiperidin-3-ylamino)phenyl)acetamide] | * (0<Y<=25%) | < 100
CC(C)c1cc(N2C(=S)N(c3ccc(C#N)c(Cl)c3)C(=O)C2(C)C)ccc1OCCN1C[C@@H](C)N(CC(=O)Nc2cc(NC3CCC(=O)NC3=O)ccc2F)[C@@H](C)C1 (stereo partly drawn) [Example 222, 2-((2S,6R)-4-(2-(4-(3-(3-chloro-4-cyanophenyl)-5,5-dimethyl-4-oxo-2-thioxoimidazolidin-1-yl)-2-isopropylphenoxy)ethyl)-2,6-dimethylpiperazin-1-yl)-N-(5-(2,6-dioxopiperidin-3-ylamino)-2-fluorophenyl)acetamide] | * (0<Y<=25%) | 100 to 500
CCc1cc(N2C(=S)N(c3ccc(C#N)c(C(F)(F)F)c3)C(=O)C2(C)C)ccc1OCCN1CCN(CC(=O)Nc2cc(NC3CCC(=O)NC3=O)ccc2Cl)CC1 (centres unmarked) [Example 41, hydrochloride] | * (0<Y<=25%) | < 100
CC(C)c1cc(N2C(=S)N(c3ccc(C#N)c(C(F)(F)F)c3)C(=O)C2(C)C)ccc1OCCN1C[C@@H](C)N(CC(=O)Nc2cccc(NC3CCC(=O)NC3=O)c2)[C@@H](C)C1 (stereo partly drawn) [Example 170, 2-((2S,6R)-4-(2-(4-(3-(4-cyano-3-(trifluoromethyl)phenyl)-5,5-dimethyl-4-oxo-2-thioxoimidazolidin-1-yl)-2-isopropylphenoxy)ethyl)-2,6-dimethylpiperazin-1-yl)-N-(3-(2,6-dioxopiperidin-3-ylamino)phenyl)acetamide] | * (0<Y<=25%) | < 100
C[C@@H]1CN(CCOc2ccc(N3C(=S)N(c4ccc(C#N)c(C(F)(F)F)c4)C(=O)C3(C)C)cc2F)CCN1CC(=O)Nc1cccc(NC2CCC(=O)NC2=O)c1 (stereo partly drawn) [Example 277, 2-((R)-4-(2-(4-(3-(4-cyano-3-(trifluoromethyl)phenyl)-5,5-dimethyl-4-oxo-2-thioxoimidazolidin-1-yl)-2-fluorophenoxy)ethyl)-2-methylpiperazin-1-yl)-N-(3-(2,6-dioxopiperidin-3-ylamino)phenyl)acetamide] | *** (35%<Y<50%) | < 100
CC(C)c1cc(N2C(=S)N(c3cnc(C#N)c(C(F)(F)F)c3)C(=O)C2(C)C)ccc1OCCN1CCN(CC(=O)Nc2cccc(NC3CCC(=O)NC3=O)c2)[C@H](C(F)(F)F)C1 (stereo partly drawn) [Example 256, 2-((S)-4-(2-(4-(3-(6-cyano-5-(trifluoromethyl)pyridin-3-yl)-5,5-dimethyl-4-oxo-2-thioxoimidazolidin-1-yl)-2-isopropylphenoxy)ethyl)-2-(trifluoromethyl)piperazin-1-yl)-N-(3-(2,6-dioxopiperidin-3-ylamino)phenyl)acetamide] | ** (25%<Y<=35%) | 100 to 500
